Assay results taken from US9034862B2, “Compositions and methods for the treatment of cancer” (priority 2011, dated 2015).

Key:
[1] = system: Gaussia luciferase expression in U2OS cells; details: ratio of recovery of transcription level vs. time
Experimental: (§1) Vector Construction and Preparation. […] Preparation of Platinated Insertion Strand. […] The suspension was centrifuged. To a solution of 0.2 mM 16-mer oligonucleotide 5′-[…]*[…] The reaction mixture was incubated in the dark at 37° C. overnight. The reaction was stopped when the solution was frozen. […] After purification, the platinated DNA solution was dialyzed against H2O and lyophilized. […] The insertion strand was further analyzed for nucleotide composition by nuclease S1 digestion to confirm the platination site following a protocol published previously (Table 13) (e.g., see J Am Chem Soc 2007, 129, 6370-6371). The platinated and unplatinated DNA strands (40 μM) were phosphorylated by T4 PNK (0.67 U/μL) at 37° C. for 3 h, followed by a phenol/chloroform/isoamyl alcohol extraction to remove the enzyme. The phosphorylated DNA strands were ethanol precipitated and stored in −80° C. at a concentration of 100 pmol/μL.
(§2) Briefly, a 600 μg quantity of pGLuc8temG plasmid was digested with 30 U Nt.BbvCI at 37° C. for 1 h. The reaction mixture was heated at 80° C. for 20 min to deactivate the enzyme, followed by a phenol/chloroform/isoamyl alcohol extraction to remove the enzyme. The mixture was dialyzed against H2O overnight at 4° C. The plasmid was further digested with 30 U Nt.BspQI at 50° C. for 1 h, and the enzyme was heat-deactivated and removed by a phenol/chloroform/isoamyl alcohol extraction. The nicked plasmid was mixed with 1,000 equiv of complementary DNA strand 5′-[…] (SEQ ID NO: 2) in a buffer of 10 mM Tris-HCl, 2 mM MgCl2, 0.4 M NaCl, pH 7.4, heated at 80° C. for 5 min, and subsequently cooled at 4° C. for 5 min for 10 cycles. […] A 120 μg quantity of the gapped plasmid was annealed with 100 equiv of the insertion strand in a buffer of 10 mM Tris-HCl, 2 mM MgCl2, 0.4 M NaCl, pH 7.4 from 90° C. to 4° C. at −1° C./min in a thermocycler. The platinated plasmid was dialyzed against H2O at 4° C. overnight and further purified by treatment with 30 U BsmBI at 55° C. for 1 h. The closed-circular form of plasmid was purified and concentrated by isopycnic centrifugation, followed by n-butanol extraction and ethanol precipitation. The plasmids were quantitated by a Quant-iT™ PicoGreen® dsDNA Kit from Invitrogen (Carlsbad, Calif.), and stored in −80° C. in TE buffer (10 mM Tris-HCl, 2 mM EDTA, pH 7.4).
(§3) Transfection of platinated plasmids into mammalian cells was carried out as reported previously (e.g., see ChemBioChem 2011, 12, 1115-1123). A549 and HeLa cells were plated at 2,000 cells per well in 96-well plates. NTera-2 and HT29 cells were plated at 4,000 cells per well in 96-well plates. MCF7 and U2OS cells were plated at 5,000 cells per well in 96-well plates. The cells were allowed to attach and grow for 48 h, and then washed with antibiotic-free culture media right before transfection. Transient transfection of the cells was carried out using Lipofectamine 2000. Briefly, 10 ng of site specifically platinated probes was included in each well. The experiments were performed in quadruplicate. The probes were diluted in OptiMEM, and Lipofectamine was diluted in OptiMEM. The two solutions were combined and incubated for 20 min. The transfection mixture was delivered into each well, and the cells were incubated for 2 h. The cells were washed with antibiotic-free culture media to remove the transfection mixture. A 100 μL volume of fresh, antibiotic-free media was added into each well to start the transcription assay. […]

[2] = system: Gaussia luciferase expression in A549 cells; details: ratio of recovery of transcription level vs. time
Experimental: as §1, §2, §3

[3] = system: Gaussia luciferase expression in HeLa cells; details: ratio of recovery of transcription level vs. time
Experimental: as §1, §2, §3

[4] = system: Gaussia luciferase expression in HT29 cells; details: ratio of recovery of transcription level vs. time
Experimental: as §1, §2, §3

[5] = system: Gaussia luciferase expression in MCF7 cells; details: ratio of recovery of transcription level vs. time
Experimental: as §1, §2, §3

NTera2 = assay: MTT assay, NTera2; format: cell-based, human; details: Table 3, NTera2 Testis, 72-h incubation
Experimental: (§4) Solutions of the platinum compounds were freshly prepared in sterile PBS before use and their concentrations quantitated by atomic absorption spectroscopy. Cells were seeded on a 96-well plate (1200 cells per well for cancer cells and 1800 cells per well for the normal lung fibroblasts) in 100 μL RPMI or DMEM media, and incubated for 24 h. […] The cells were then treated with 20 μL of 3-(4,5-dimethylthiazol-2-yl)-2,5-diphenyltetrazolium bromide (MTT) (5 mg/mL in PBS) and incubated for 4 h. The medium was removed, 100 μL of DMSO was added to the cells, and the absorbance of the purple formazan was recorded at 560 nm using a BioTek Synergy HT multi-detection microplate plate reader. Each condition was performed in triplicate and three independent experiments were carried out for each cell line.

[6] = equimolar N-AcMet, 37° C.
Experimental: NMR spectra were collected on a Varian 500 spectrometer equipped with a triple-resonance broadband inverse probe and a variable temperature unit. The 1-D ^1H NMR kinetic studies were performed in duplicate as a standard time-arrayed experiment using a variable delayed list. Incremented 1-D spectra were processed in exactly the same way and signals of aromatic amine ligands from platinum compounds were integrated. The relative concentrations of the platinum compound at each time point were calculated from peak integrals. […] Reactions of platinum compounds with N-AcMet were performed in NMR tubes containing 2 mM of the Pt complex and 2 mM (1 equiv) of N-AcMet in 10 mM PBS buffer, D2O, pH*7.4 at 37° C. […] Deuterated 3-(trimethylsilyl)propionic acid sodium salt (TMS-PFASS) was used as an internal standard. The pH* values are the measured pH values without correction for the effect of deuterium on the electrode.

[7] = system: human prostate carcinoma PC3; assay: MTT assay, PC3; format: cell-based
Experimental: as §4
(§5) Human prostate carcinoma (PC3) and human cervix carcinoma (HeLa) cells were obtained from the ATCC. The human lung carcinoma cell line A549 was kindly provided by David E. Root (Whitehead Institute for Biomedical Research). Cells were incubated at 37° C. in 5% CO2 and grown in RPMI (PC3) or DMEM (A549 and HeLa) medium supplemented with 10% fetal bovine serum and 1% penicillin/streptomycin. Cells were passaged every 3 to 4 days and restarted from the frozen stock upon reaching passage number 20.
(§6) Solutions of the platinum agents were freshly prepared in sterile PBS before use and the platinum content was quantitated by AAS. Cells were seeded on 96 well plates (1200 cells per well) in 100 μL RPMI or DMEM media\ and incubated for 24 hours. […] The cells were then treated with 20 μL of 3-(4,5-dimethylthiazol-2-yl)-2,5-diphenyltetrazolium bromide (MTT) (5 mg/mL in PBS) and incubated for 4 h. The medium was removed, 100 μL of DMSO were added to the cells, and the absorbance of the purple formazan was recorded at 570 nm using a BioTek Synergy HT multi-detection microplate plate reader. For each cell line, three independent experiments were carried out in triplicate.

[8] = system: normal lung fibroblast MRC5; assay: MTT assay, MRC5; format: cell-based, human
Experimental: Human colon carcinoma HT29, human breast carcinoma MCF7, human bone sarcoma U2OS, human prostate carcinoma PC3, and human cervix carcinoma HeLa cells were obtained from the ATCC. A2780/CP70 cisplatin-resistant human ovarian cancer cells were kindly provided by Dr. Stephen B. Howell (Moores UCSD Cancer Center) and the human lung carcinoma cell lines A549 and normal lung fibroblast MRC5 by David E. Root (Whitehead Institute for Biomedical Research). Cells were incubated at 37° C. in 5% CO2 and grown in RPMI (HT29, A2780/CP70, and PC3) or DMEM (A549, MRC5, HeLa, MCF7, and U2OS) medium supplemented with 10% fetal bovine serum and 1% penicillin/streptomycin. Cells were passed every 3 to 4 days and restarted from a frozen stock upon reaching pass number 20.
Solutions of the platinum compounds were freshly prepared in sterile PBS before use and their concentrations quantitated by atomic absorption spectroscopy. […] The cells were then treated with 20 μL of 3-(4,5-dimethylthiazol-2-yl)-2,5-diphenyltetrazolium bromide (MTT) (5 mg/mL in PBS) and incubated for 4 h. The medium was removed, 100 μL of DMSO was added to the cells, and the absorbance of the purple formazan was recorded at 560 nm using a BioTek Synergy HT multi-detection microplate plate reader. Each condition was performed in triplicate and three independent experiments were carried out for each cell line.

[9] = system: human cervix carcinoma HeLa cells; assay: MTT assay, HeLa; format: cell-based
Experimental: as §4, §5, §6

calf thymus DNA = assay: Ethidium bromide DNA-binding competition, Scatchard analysis; set-up: key: competitive (type A); non-competitive (type D); both (type B); No inhibition of ethidium binding is labeled as type C
Excerpt: Using this approach, it is possible to determine whether the inhibition of ethidium binding is competitive (type A), non-competitive (type D), or both (type B). No inhibition of ethidium binding is labeled as type C.

IC50 ([7]; Table 3, PC3 Prostate, 72-h incubation): 740 ± 40 nM
IC50 ([7]; Table 11 (Example 3), PC3 Prostate, 72 h): 600 ± 250 nM
IC50 ([9]; Table 3, HeLa Cervix, 72-h incubation): 300 ± 20 nM
IC50 ([9]; Table 5, HeLa, 72-h incubation): 300 ± 20 nM
IC50 ([9]; Table 11 (Example 3), HeLa Cervix, 72 h): 210 ± 35 nM
IC50 ([9]; Table 14, HeLa, MTT assay): 370 ± 40 nM
Substance: cis-[Pt(NH3)2(phenanthridine)Cl]NO3 [phenanthriplatin]
recovery rate of transcription (S) [1]: 0.805
recovery rate of transcription (S) [2]: 0.263
recovery rate of transcription (S) [3]: 0.434
recovery rate of transcription (S) [4]: 0.884
recovery rate of transcription (S) [5]: 0.337
IC50 (NTera2): 35 ± 2 nM
second-order rate constant, reaction with N-AcMet [6]: 0.00944 M⁻¹ s⁻¹
IC50 ([8]; Table 4, MRC5 normal lung fibroblast, 72 h incubation): 860 ± 60 nM
IC50 ([8]; Table 5, MRC5, 72-h incubation): 860 ± 60 nM
type of inhibition of ethidium binding (Scatchard) (calf thymus DNA; 12-h incubation period): type D
type of inhibition of ethidium binding (Scatchard) (calf thymus DNA; 1 min incubation period): type C
